From US20170097349A1 (priority 2010, published 2017)

Tested on: whole blood from TB-reactor and BCG-vaccinated animals (IFN-γ response)
Type: cell-based, cattle

EAEHQAIIRDVLTASDFWGG [compound 29]
recognition in TB-reactor animals not responding to peptides #42 or #55: recognised in TB-reactor animals that failed to respond to peptides #42 or #55

LGRNFQVIYEQANAHGQKVQ [peptide #33]
recognition in TB-reactor animals not responding to peptides #42 or #55: recognised in TB-reactor animals that failed to respond to peptides #42 or #55

QANLGEAAGTYVAADAAAAS [peptide #55]
responder frequency, TB-reactor animals: 36%

RDVLAAGDFWGGAGSVACQE [peptide #42]
responder frequency, TB-reactor animals: 50%

RNIVNMLHGVRDGLVRDANN [compound 20]
recognition in TB-reactor animals not responding to peptides #42 or #55: recognised in TB-reactor animals that failed to respond to peptides #42 or #55

SAELPDWLAANRGLAPGGHA [peptide #64]
immunogenicity in BCG-vaccinated animals on re-screen of Sec#1 components: immunogenic in some BCG-vaccinated animals
recognition in TB-reactor animals not responding to peptides #42 or #55: recognised in TB-reactor animals that failed to respond to peptides #42 or #55

Staphylococcal enterotoxin B [SEB, reference compound]
IFN-γ response in TB-reactor and BCG-vaccinated animals: all TB-reactor and BCG-vaccinated animals responded
